# Experimental data published in publication PMC6438679, “New lupeol esters as active substances in the treatment of skin damage” (PLoS ONE, 2019).
# Where a name gives a salt, the structure may show the parent alone.
# Key:
# [1] = tested on: Reconstructed Human Epidermis (RHE) EpiDerm; assay: In vitro Skin Irritation Test on Reconstructed Human Epidermis (MTT viability); settings: for increase of cell concentration in comparison to control samples: RHE model, proliferation
# Protocol: A Skin Irritation Test was prepared according to SOP (Standard Operation Protocol) of In vitro Skin Irritation Test (ECVAM): Human Skin Model, EpiDerm-200, Version: 7.0, 30th Oct 2007.
# Standard EpiDermFT kit (MatTek Corporation) consisted of 24 tissues. Costar Snapwell single well tissue culture plate inserts had the surface area of about 1.0 cm^2 and the diameter of about 1.2 cm. Moreover inserts were equipped with pores (size 0.4 μm diameter). Before test, all tissues were visually inspected if there are any physical imperfections. […] The culture medium was fed through a microporous membrane. The tissue contained 8–12 cell layers plus stratum corneum (basal, spinous, and granular layers) [35].
# In vitro skin irritation test was prepared according to the procedure described by Kandarova et al. [35]. On the first day, tissues were topically exposed to the oil solutions of tested triterpenes. White crystals of each compound were dissolved in caprylic and capric triglyceride (Crodamol GTCC, Croda). The esters concentration in the solutions was 0.5% (m/m). Three tissues were used for each tested substance, as well as for the positive and negative control. Positive control solution consisted of 5% aq. solution of SDS (Sodium Dodecyl Sulfate, Mattek), and a negative control solution consisted of Caprylic and Capric Triglycerides (Crodamol GTCC, Croda). Chemical exposure time was 60 min, during which, for 35 min, the tissues were kept in an incubator at 37°C (chamber Heraeus, Kendro). The test substances were then removed from the tissue surface by an extensive washing procedure using DPBS (phosphate-buffered saline, pH = 7.4, Mattek). The tissue inserts were blotted and transferred to fresh medium.
# After 24 hours of incubation, the medium was exchanged and the tissues were incubated for an additional 18 hours. After 42 hours of incubation time, the tissues were transferred into a yellow solution of MTT (3-(4,5-dimethylthiazol-2-yl)-2,5-diphenyltetrazolium bromide, Mattek) and incubated for a further 3 hours. The resultant purple-blue formazan salt, formed mainly by mitochondrial metabolism, was extracted after 2 hours with isopropanol, pure (Mattek). The optical density (OD570) of the extracted formazan solution was determined using a spectrophotometer (Biotek, PowerWave XS). Cells viability assay was calculated referring to the negative control tissues. A substance is classified as an irritant if the tissue viability relative to the negative control treated tissues is reduced below 50%.
Compound,melting point [°C],increase of cell concentration in comparison to control samples [1],"Viability [%] / SD ([1]; Epiderm, 0.5% (m/m) in caprylic and capric triglyceride, 60 min exposure, 42 h incubation, MTT, relative to negative control, n = 3) [%]"
"C=C(C)C1CCC2(C)CCC3(C)C(CCC4C5(C)CCC(OC(C)=O)C(C)(C)C5CCC43C)C12 (stereo not drawn) [Compound 2, Lupeol acetate]",216 to 219,more than 30%,–
"C=C(C)C1CCC2(C)CCC3(C)C(CCC4C5(C)CCC(OC(=O)CCC(=O)O)C(C)(C)C5CCC43C)C12 (stereo not drawn) (as salt: succinate) [Compound 5, Lupeol succinate]",221 to 223,–,–
"CCCCCCCCCCCCOS(=O)(=O)[O-].[Na+] [PC, Sodium Dodecyl Sulfate, reference compound]",–,–,28.1
"C=C(C)[C@@H]1CC[C@]2(C)CC[C@]3(C)[C@H](CC[C@@H]4[C@@]5(C)CC[C@H](OC(=O)c6ccncc6)C(C)(C)[C@@H]5CC[C@]43C)[C@@H]12 [Compound 4, Lupeol isonicotinate]",179 to 183,more than 30%,–
"C=C(C)C1CCC2(C)CCC3(C)C(CCC4C5(C)CCC(OC(=O)CC)C(C)(C)C5CCC43C)C12 (stereo not drawn) [Compound 3, Lupeol propionate]",220 to 222,more than 30%,–
"C=C(C)[C@@H]1CC[C@]2(C)CC[C@]3(C)[C@H](CC[C@@H]4[C@@]5(C)CC[C@H](OC(=O)c6ccccc6OC(C)=O)C(C)(C)[C@@H]5CC[C@]43C)[C@@H]12 [Compound 6, Lupeol acetylsalicylate]",226 to 229,–,–
